Source: patent US20080199423A1, “Methods of Using Apo2l Receptor Agonists and Ink Cell Activators” (GENENTECH, INC., priority 2004, published 2008)

Assays:
HCT116 cells = experiment: 51Cr release cytotoxicity assay on HCT116 target cells; assay type: cell-based; details: NK cells stimulated with agent
Procedure: (§1) Purified NK cells were treated with poly(I:C) or R-848 and incubated with B16BL10 melanoma cells (ATCC) at the indicated ratios. Purified NK cells stimulated with R-848 were incubated with HCT116 target cells (ATCC) at the indicated ratios. The role of Apo2L/TRAIL in lysis assays in panels B and C was determined by preincubation with neutralizing (5C2) and non-neutralizing (1D1) anti-Apo2L/TRAIL mAbs. The data has been confirmed with NK cells from at least 3 donors and less that 5% SD was observed.
(§2) For the cytotoxicity assays, target cells were labeled with 100 mCi ^51Cr for 1 hour at 37° C. and then washed 3 times before use. 10^4 target cells were added to varying numbers of effector cells at the indicated ratios and incubated in duplicate wells for 4 hours at 37° C., 5% CO2, and supernatants were used to determine ^51Cr released using a Gamma counter. The cytotoxicity assays were performed in round bottom 96 well plates and the percent specific lysis was calculated as 100× (experimental cpm-spontaneous cpm)/(total cpm-spontaneous cpm). The role of Apo2L/TRAIL expressed by NK cells in the lysis of target cells was evaluated using anti-Apo2L/TRAIL mAbs (5C2 and 1D1, Genentech, Inc.). Isotype control antibodies were obtained from BD Biosciences.

NK cells = experiment: Microarray (Affymetrix U133) gene expression analysis of poly(I:C)-treated NK cells; assay type: cell-based, human; details: for FoldChange / log10-FoldChange: relative to untreated NK cells
Procedure: A microarray based gene expression analysis using high-density oligonucleotide arrays (GeneChip, Affymetrix) was performed using RNA from resting and poly(I:C)-treated NK cells (NK cells were obtained and purified from 4 healthy donors using the technique described in Example 1 above). The NK cells were treated with poly(I:C) (50 μg/ml, Pharmacia) overnight in RPMI 1640 supplemented with heat inactivated 10% FCS, penicillin, streptomycin, 10 mM sodium pyruvate, 2 mM L-glutamine and 10 mM HEPES. RNA was isolated using a RNeasy kit (Qiagen), and treated with RNase-free DNase-I (Ambion) to ensure removal of contaminating DNA. NK cells were lysed in lysis buffer (50 mM HEPES pH7.5, 150 mM NaCl, 1.5 mM MgCl2, 1 mM EGTA, 10% glycerol and 1% Triton X-100, supplemented with Complete Protease Inhibitor Cocktail (Roche).
Affymetrix U133A and B GeneChip probe arrays were used to identify differentially expressed transcripts. Initially, the genes were ranked according to concordance in the pairwise comparison, and the Mann-Whitney pairwise comparison test was used to calculate significance. Genes for which the concordance was 100% were chosen for further analysis. This approach was previously validated to identify differentially expressed genes by confirming with real time RT-PCR. To determine confidence intervals shown in Table 1, the average log10-signal was computed for each probe set of the genes of interest, or the treatment and control groups. The estimated log10 fold change was defined as the difference between these averages. A pooled estimate of the standard deviation about the two groups' averages (computed separately for each probe set) was used to compute a 95% confidence interval for the log10 fold change. The estimated log10 fold change and the two endpoints of its 95% confidence interval were exponentiated back to the original signal scale, providing an estimate of fold change and a corresponding 95% confidence interval. Additional information about the U133 probe sets is available from the manufacturer, Affymetrix.
Fold change values and associated 95% confidence intervals (degree of freedom=6) were determined for genes of interest upon treatment with poly(I:C) relative to untreated NK cells. Data for each probe set present on the Affymetrix U133 chip series corresponding to the genes of interest is shown.

B16BL10 melanoma cells = experiment: 51Cr release cytotoxicity assay on B16 melanoma target cells; assay type: cell-based, mouse; details: NK cells stimulated with agent
Procedure: as §1, §2

[1] = gene Apo2L, probe set 202687_s_at
[2] = gene Apo2L, probe set 202688_at
[3] = gene Apo2L, probe set 214329_x_at
[4] = gene CCL19, probe set 210072_at
[5] = gene CCL20, probe set 205476_at
[6] = gene CCL21, probe set 204606_at
[7] = gene FasL, probe set 211333_s_at
[8] = gene Granulysin, probe set 37145_at
[9] = gene Granulysin, probe set 205495_s_at
[10] = gene Granzyme A, probe set 205488_at
[11] = gene Granzyme B, probe set 210164_at
[12] = gene Granzyme H, probe set 210321_at
[13] = gene Granzyme M, probe set 207460_at
[14] = gene IL-8, probe set 202859_x_at
[15] = gene IL-8, probe set 211506_s_at
[16] = gene NKG2-D, probe set 205821_at
[17] = gene NKG2-D, probe set 210690_at
[18] = gene NKG2A, probe set 206785_s_at
[19] = gene NKp30, probe set 210629_x_at
[20] = gene NKp30, probe set 211581_x_at
[21] = gene NKp30, probe set 211582_x_at
[22] = gene NKp30, probe set 214181_x_at
[23] = gene NKp30, probe set 214574_x_at
[24] = gene Perforin 1, probe set 214617_at
[25] = gene TNFα, probe set 207113_s_at
[26] = poly(I:C) treatment, microarray

In the case of poly(I:C), the “Cytotoxicity of stimulated NK cells towards HCT116 cells” value (HCT116 cells) is reported as “increased cytoxicity”, the FoldChange (NK cells; [1]) is reported as 13.42 and the log10-FoldChange (NK cells; [1]) is reported as 1.13. The FoldChange (NK cells; [2]) was 9.67, the log10-FoldChange (NK cells; [2]) was 0.99 and the FoldChange (NK cells; [3]) was 5.85. For the same substance, the log10-FoldChange (NK cells; [3]) was 0.77, the FoldChange (NK cells; [4]) was 34.71 and the log10-FoldChange (NK cells; [4]) was 1.54. For the same substance, the FoldChange (NK cells; [5]) was 7.96, the log10-FoldChange (NK cells; [5]) was 0.9 and the FoldChange (NK cells; [6]) was 1.2. For the same substance, the log10-FoldChange (NK cells; [6]) was 0.08, the FoldChange (NK cells; gene CCR7, probe set 206337_at) was 4.79 and the log10-FoldChange (NK cells; gene CCR7, probe set 206337_at) was 0.68. For the same substance, the FoldChange (NK cells; gene FasL, probe set 210865_at) was 2.37, the log10-FoldChange (NK cells; gene FasL, probe set 210865_at) was 0.37 and the FoldChange (NK cells; [7]) was 2.49. The log10-FoldChange (NK cells; [7]) was 0.4, the FoldChange (NK cells; [8]) was 1.18 and the log10-FoldChange (NK cells; [8]) was 0.07. For the same substance, the FoldChange (NK cells; [9]) was 1.25, the log10-FoldChange (NK cells; [9]) was 0.1 and the FoldChange (NK cells; [10]) was 0.83. It also gave a log10-FoldChange (NK cells; [10]) of −0.08, a FoldChange (NK cells; [11]) of 1.04 and a log10-FoldChange (NK cells; [11]) of 0.02. It also gave a FoldChange (NK cells; [12]) of 0.58, a log10-FoldChange (NK cells; [12]) of −0.24 and a FoldChange (NK cells; [13]) of 0.81. For the same substance, the log10-FoldChange (NK cells; [13]) was −0.09, the FoldChange (NK cells; gene IFNγ, probe set 210354_at) was 14.45 and the log10-FoldChange (NK cells; gene IFNγ, probe set 210354_at) was 1.16. The FoldChange (NK cells; gene IL-6, probe set 205207_at) was 10.43, the log10-FoldChange (NK cells; gene IL-6, probe set 205207_at) was 1.02 and the FoldChange (NK cells; [14]) was 4.07. The log10-FoldChange (NK cells; [14]) was 0.61, the FoldChange (NK cells; [15]) was 3.42 and the log10-FoldChange (NK cells; [15]) was 0.53. The FoldChange (NK cells; [16]) was 0.86, the log10-FoldChange (NK cells; [16]) was −0.07 and the FoldChange (NK cells; [17]) was 0.66. For the same substance, the log10-FoldChange (NK cells; [17]) was −0.18, the FoldChange (NK cells; [18]) was 0.97 and the log10-FoldChange (NK cells; [18]) was −0.01. The FoldChange (NK cells; [19]) was 0.38, the log10-FoldChange (NK cells; [19]) was −0.42 and the FoldChange (NK cells; [20]) was 0.26. It also gave a log10-FoldChange (NK cells; [20]) of −0.59, a FoldChange (NK cells; [21]) of 0.19 and a log10-FoldChange (NK cells; [21]) of −0.72. It also gave a FoldChange (NK cells; [22]) of 0.22, a log10-FoldChange (NK cells; [22]) of −0.67 and a FoldChange (NK cells; [23]) of 0.25. It also gave a log10-FoldChange (NK cells; [23]) of −0.6, a FoldChange (NK cells; [24]) of 1.3 and a log10-FoldChange (NK cells; [24]) of 0.12. For the same substance, the FoldChange (NK cells; [25]) was 2.68, the log10-FoldChange (NK cells; [25]) was 0.43 and the “Expression of mRNA for FasL and TNF-alpha” value (NK cells; poly(I:C) treatment (activation of TLR3)) was “smaller, but reproducible increase”. The “Decrease in expression of NKp30 in NK cells” value (NK cells; [26]) was 3-5 fold, the “Decrease in expression of granzyme H in NK cells” value (NK cells; [26]) was 3-5 fold and the “Expression of mRNAs encoding perforin, granulysin, granzymes A, B, M, NKG2D and NKp44” value (NK cells; [26]) was “did not significantly alter”. The “Increase in expression of Apo2L/TRAIL in NK cells” value (NK cells; [26]) was about 10 fold and the “Killing of B16 melanoma cells by stimulated NK cells” value (B16BL10 melanoma cells) was “efficiently killed”.
